For orientation: IC50 means the midpoint of a concentration-inhibition curve.

For 21 compounds, IC50 results are on record in US20140135270A1, “MACROCYCLIC COMPOUNDS FOR INHIBITION OF INHIBITORS OF APOPTOSIS” (Ensemble Therapeutics Corp., priority 2012, published 2014).

One assay addresses T1, His-BIR3 (241-356, XIAP) (Homo sapiens, UniProt P98170).
T1 construct: additions of His-BIR3 (241-356, XIAP), fluorescein labeled SMAC peptide
As to the kind of experiment: XIAP-BIR3/SMAC Homogeneous Time Resolved Fluorescence (HTRF) Assay. As to conditions: fluorescein labeled SMAC peptide. The class given is binding.

In assay [1] the target is T2, His-BIR2-3 (125-356, C202A/C213G, XIAP) (Homo sapiens, UniProt P98170, C202A/C213G).
T2 construct: additions of His-BIR2-3 (125-356, C202A/C213G, XIAP), fluorescein labeled dimeric SMAC peptide
T2 sequence (P98170 125-356 C202A/C213G): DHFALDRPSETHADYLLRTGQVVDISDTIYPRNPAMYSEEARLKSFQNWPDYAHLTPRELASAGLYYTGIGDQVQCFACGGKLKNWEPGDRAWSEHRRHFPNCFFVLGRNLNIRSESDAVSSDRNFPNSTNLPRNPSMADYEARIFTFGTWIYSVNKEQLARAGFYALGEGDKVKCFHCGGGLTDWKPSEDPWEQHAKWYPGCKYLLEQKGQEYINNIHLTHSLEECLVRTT
The assay can be described thus: XIAP-BIR2-3 Dimeric SMAC Peptide Homogeneous Time Resolved Fluorescence (HTRF) Assay. It is filed as binding. The conditions noted are these: fluorescein labeled dimeric SMAC peptide.

T1 sequence (P98170 241-356): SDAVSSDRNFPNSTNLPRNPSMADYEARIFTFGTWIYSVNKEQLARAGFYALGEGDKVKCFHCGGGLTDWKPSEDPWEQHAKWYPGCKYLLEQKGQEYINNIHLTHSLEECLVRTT

Regarding `CC[C@H](NC(=O)[C@H](C)NC)C(=O)N1C[C@@H]2C[C@H]1C(=O)N[C@@H](Cc1ccc3ccccc3c1)C(=O)N[C@H](C(=O)NS(=O)(=O)C1CC1)Cc1ccc(cc1)OCc1cn(nn1)[C@H]1C[C@@H](C(=O)N[C@@H](Cc3ccc4ccccc4c3)C(=O)N[C@H](C(=O)O)Cc3ccc(cc3)OC/C=C/CO2)N(C(=O)[C@@H](NC(=O)[C@H](C)NC)C(C)(C)C)C1` [Example 107], the IC50 stood at 26.1 nM against His-BIR3 (241-356, XIAP) and 1.7 nM in assay [1].
As to `CN[C@@H](C)C(=O)N[C@@H](Cc1ccccc1)C(=O)N1C[C@@H]2C[C@H]1C(=O)N[C@@H](Cc1ccc3ccccc3c1)C(=O)N[C@H](C(=O)O)CCC(=O)N[C@H]1C[C@@H](C(=O)N[C@@H](Cc3ccc4ccccc4c3)C(=O)N[C@H](C(=O)O)Cc3ccc(cc3)OC/C=C/CO2)N(C(=O)[C@@H](NC(=O)[C@H](C)NC)C(C)(C)C)C1` [Example 60], the IC50 at His-BIR3 (241-356, XIAP) was 79.5 nM; in assay [1], 9.2 nM.
For `CN[C@@H](C)C(=O)N[C@H](C(=O)N1CC[C@H]2OCc3cn(nn3)CC[C@@H](C(=O)OC)NC(=O)[C@H](Cc3ccc4ccccc4c3)NC(=O)[C@@H]3[C@@H](CCN3C(=O)[C@@H](NC(=O)[C@H](C)NC)C(C)(C)C)OC/C=C/COc3ccc(cc3)C[C@@H](C(=O)O)NC(=O)[C@H](Cc3ccc4ccccc4c3)NC(=O)[C@H]21)C(C)(C)C` [Example 17], in that order: 1.8 nM and 1.8 nM.
Consider `CC[C@H](NC(=O)[C@H](C)NC)C(=O)N1C[C@@H]2C[C@H]1C(=O)N[C@@H](C)C(=O)N[C@H](C(=O)O)Cc1ccc(cc1)C(=O)N[C@H]1C[C@@H](C(=O)N[C@@H](Cc3ccc4ccccc4c3)C(=O)N[C@H](C(=O)O)Cc3ccc(cc3)OC/C=C/CO2)N(C(=O)[C@@H](NC(=O)[C@H](C)NC)C(C)(C)C)C1` [Example 45], for which the IC50 is 106 nM at His-BIR3 (241-356, XIAP) and 7.9 nM in assay [1].
Taken in the same sequence, the figures for `CN[C@@H](C)C(=O)N[C@H](C(=O)N1C[C@@H]2C[C@H]1C(=O)N[C@@H](Cc1ccc3ccccc3c1)C(=O)N[C@H](C(=O)O)Cc1ccc(cc1)CCCCO[C@H]1C[C@@H](C(=O)N[C@@H](Cc3ccc4ccccc4c3)C(=O)N[C@H](C(=O)NS(=O)(=O)C3CC3)Cc3ccc(cc3)OCc3cn2nn3)N(C(=O)[C@@H](NC(=O)[C@H](C)NC)C(C)(C)C)C1)C(C)(C)C` [Example 127] were 7.5 nM and 7.1 nM.
Taken in the same sequence, the figures for `CNC(C)C(=O)NC(C(=O)N1CC2CC1C(=O)NC(Cc1ccc3ccccc3c1)C(=O)NC(C(=O)O)Cc1ccc(cc1)OCC=CCOC1CC(C(=O)NC(Cc3ccc4ccccc4c3)C(=O)NC(C(=O)O)CCCCC(=O)N2)N(C(=O)C(NC(=O)C(C)NC)C(C)(C)C)C1)C(C)(C)C` (centres unmarked) [Example 31] were 5.8 nM and 2.1 nM.
For `CN[C@@H](C)C(=O)N[C@@H](Cc1c[nH]cn1)C(=O)N1C[C@@H]2C[C@H]1C(=O)N[C@@H](Cc1ccc3ccccc3c1)C(=O)N[C@H](C(=O)O)CCC(=O)N[C@H]1C[C@@H](C(=O)N[C@@H](Cc3ccc4ccccc4c3)C(=O)N[C@H](C(=O)O)Cc3ccc(cc3)OC/C=C/CO2)N(C(=O)[C@@H](NC(=O)[C@H](C)NC)C(C)(C)C)C1` [Example 59], the IC50 on His-BIR3 (241-356, XIAP) was found to be 131 nM; in assay [1], 24.3 nM.
On to `CN[C@@H](C)C(=O)N[C@H](C(=O)N1C[C@H]2C/C=C/COc3ccc(cc3)C[C@@H](C(=O)O)NC(=O)[C@H]([C@H](C)c3ccc4ccccc4c3)NC(=O)[C@@H]3C[C@@H](CN3C(=O)[C@@H](NC(=O)[C@H](C)NC)C(C)(C)C)n3cc(nn3)COc3ccc(cc3)C[C@@H](C(=O)NS(=O)(=O)C3CC3)NC(=O)[C@H](Cc3ccc4ccccc4c3)NC(=O)[C@@H]1C2)C(C)(C)C` [Example 98], for which the IC50 on His-BIR3 (241-356, XIAP) worked out at 4.4 nM; in assay [1], 2.2 nM.
Taken in the same sequence, the figures for `CN[C@@H](C)C(=O)N[C@H](C(=O)N1C[C@@H]2C[C@H]1C(=O)N[C@@H](Cc1ccc3ccccc3c1)C(=O)N[C@H](C(=O)O)Cc1ccc(cc1)C(=O)N[C@H]1C[C@@H](C(=O)N[C@@H](Cc3ccc4ccccc4c3)C(=O)N[C@H](C(=O)O)Cc3ccc(cc3)OC/C=C/CO2)N(C(=O)[C@@H](NC(=O)[C@H](C)NC)C(C)(C)C)C1)C(C)C` [Example 68] were 15.5 nM and 2.7 nM.
Taken in the same sequence, the figures for `CN[C@@H](C)C(=O)N[C@H](C(=O)N1C[C@@H]2C[C@H]1C(=O)N[C@@H](Cc1ccc3ccccc3c1)C(=O)N[C@H](C(=O)O)Cc1ccc(cc1)OCc1cn(nn1)[C@H]1C[C@@H](C(=O)N[C@@H](Cc3ccc4ccccc4c3)C(=O)N[C@H](c3nnn[nH]3)Cc3ccc(cc3)OCCCCO2)N(C(=O)[C@@H](NC(=O)[C@H](C)NC)C(C)(C)C)C1)C(C)(C)C` [Example 128] were 5.5 nM and 3.3 nM.
For `CN[C@@H](C)C(=O)N[C@@H](CC1CCCCC1)C(=O)N1C[C@@H]2C[C@H]1C(=O)N[C@@H](Cc1ccc3ccccc3c1)C(=O)N[C@H](C(=O)O)Cc1ccc(cc1)C(=O)N[C@H]1C[C@@H](C(=O)N[C@@H](Cc3ccc4ccccc4c3)C(=O)N[C@H](C(=O)O)Cc3ccc(cc3)OC/C=C/CO2)N(C(=O)[C@@H](NC(=O)[C@H](C)NC)C(C)(C)C)C1` [Example 69], the IC50 was determined as 16.4 nM against His-BIR3 (241-356, XIAP) and 3.2 nM in assay [1].
Turning to `CN[C@@H](C)C(=O)N[C@H](C(=O)N1C[C@@H]2C[C@H]1C(=O)N[C@@H](Cc1ccc3ccccc3c1)C(=O)N[C@H](C(=O)O)Cc1ccc(cc1)OC/C=C/CO[C@H]1C[C@@H](C(=O)N[C@@H](Cc3ccc4ccccc4c3)C(=O)N[C@H](C(=O)NS(=O)(=O)c3ccccn3)Cc3ccc(cc3)OCc3cn2nn3)N(C(=O)[C@@H](NC(=O)[C@H](C)NC)C(C)(C)C)C1)C(C)(C)C` [Example 118], the IC50 against His-BIR3 (241-356, XIAP) was 6.3 nM; in assay [1], 1.8 nM.
On to `CN[C@@H](C)C(=O)N[C@H](C(=O)N[C@H]1C/C=C/CC[C@@H](C(=O)O)NC(=O)[C@H](Cc2ccc3ccccc3c2)NC(=O)[C@@H]2CN(CCN2C(=O)[C@@H](NC(=O)[C@H](C)NC)C(C)(C)C)C(=O)CNC(=O)CC[C@@H](C(=O)O)NC(=O)[C@H](Cc2ccc3ccccc3c2)NC1=O)C(C)(C)C` [Example 77], for which the IC50 at His-BIR3 (241-356, XIAP) was found to be 206 nM; in assay [1], 12.1 nM.
Taken in the same sequence, the figures for `CN[C@@H](C)C(=O)N[C@H](C(=O)N1C[C@@H]2C[C@H]1C(=O)N[C@@H](Cc1ccc3ccccc3c1)C(=O)N[C@H](C(=O)O)Cc1ccc(cc1)CCCC[C@H]1C[C@@H](C(=O)N[C@@H](Cc3ccc4ccccc4c3)C(=O)N[C@H](C(=O)NS(=O)(=O)C3CC3)Cc3ccc(cc3)OCc3cn2nn3)N(C(=O)[C@@H](NC(=O)[C@H](C)NC)C(C)(C)C)C1)C(C)(C)C` [Example 119] were 2.8 nM and 3.4 nM.
Regarding `CN[C@@H](C)C(=O)N[C@@H](C)C(=O)N1C[C@@H]2C[C@H]1C(=O)N[C@@H](Cc1ccc3ccccc3c1)C(=O)N[C@H](C(=O)O)CCC(=O)N[C@H]1C[C@@H](C(=O)N[C@@H](Cc3ccc4ccccc4c3)C(=O)N[C@H](C(=O)O)Cc3ccc(cc3)OC/C=C/CO2)N(C(=O)[C@@H](NC(=O)[C@H](C)NC)C(C)(C)C)C1` [Example 55], the IC50 was found to be 252 nM on His-BIR3 (241-356, XIAP) and 108 nM in assay [1].
Regarding `CN[C@@H](C)C(=O)N[C@H](C(=O)N1C[C@@H]2C[C@H]1C(=O)N[C@@H](Cc1ccc3ccccc3c1)C(=O)N[C@H](C(=O)O)Cc1ccc(cc1)C(=O)N[C@H]1C[C@@H](C(=O)N[C@@H](Cc3ccc4ccccc4c3)C(=O)N[C@H](C(=O)O)Cc3ccc(cc3)C(=O)N2)N(C(=O)[C@@H](NC(=O)[C@H](C)NC)C(C)(C)C)C1)C(C)(C)C` [Example 85], the IC50 was found to be 16.8 nM on His-BIR3 (241-356, XIAP) and 2.5 nM in assay [1].
With `CC[C@H](NC(=O)[C@H](C)NC)C(=O)N1C[C@@H]2C[C@H]1C(=O)N[C@@H](Cc1ccc(-c3ccccc3)cc1)C(=O)N[C@H](C(=O)O)Cc1ccc(cc1)C(=O)N[C@H]1C[C@@H](C(=O)N[C@@H](Cc3ccc4ccccc4c3)C(=O)N[C@H](C(=O)O)Cc3ccc(cc3)OC/C=C/CO2)N(C(=O)[C@@H](NC(=O)[C@H](C)NC)C(C)(C)C)C1` [Example 49], the IC50 at His-BIR3 (241-356, XIAP) worked out at 16.1 nM; in assay [1], 4.8 nM.
In the case of `CN[C@@H](C)C(=O)N[C@H](C(=O)N1C[C@@H]2C[C@H]1C(=O)N[C@@H](Cc1ccc3ccccc3c1)C(=O)N[C@H](C(=O)O)Cc1ccc(cc1)C(=O)N[C@H]1C[C@@H](C(=O)N[C@@H](Cc3ccc4ccccc4c3)C(=O)N[C@H](C(=O)O)Cc3ccc(cc3)OC/C=C/CO2)N(C(=O)[C@@H](NC(=O)[C@H](C)NC)C(C)(C)C)C1)C1CCNCC1` [Example 67], at His-BIR3 (241-356, XIAP), it took 20 nM to reach half-maximal inhibition (IC50). In other words, the double-digit nanomolar range.
Same read-out and setting: the value for `CN[C@@H](C)C(=O)N[C@H](C(=O)N1C[C@@H]2C[C@H]1C(=O)N[C@@H](Cc1ccc3ccccc3c1)C(=O)N[C@H](C(=O)O)Cc1ccc(cc1)C(=O)N[C@H]1C[C@@H](C(=O)N[C@@H](Cc3ccc4ccccc4c3)C(=O)N[C@H](C(=O)O)Cc3ccc(cc3)OC/C=C/CO2)N(C(=O)[C@@H](NC(=O)[C@H](C)NC)C(C)(C)C)C1)C1CCNCC1` [Example 74] was 7.1 nM.
On His-BIR3 (241-356, XIAP), `CC[C@H](NC(=O)[C@H](C)NC)C(=O)N1C[C@@H]2C[C@H]1C(=O)N[C@@H](c1ccccc1)C(=O)N[C@H](C(=O)O)Cc1ccc(cc1)C(=O)N[C@H]1C[C@@H](C(=O)N[C@@H](Cc3ccc4ccccc4c3)C(=O)N[C@H](C(=O)O)Cc3ccc(cc3)OC/C=C/CO2)N(C(=O)[C@@H](NC(=O)[C@H](C)NC)C(C)(C)C)C1` [Example 54] had a concentration for half-maximal inhibition (IC50) of 60.3 nM.
At His-BIR3 (241-356, XIAP), `CC[C@H](NC(=O)[C@H](C)NC)C(=O)N1C[C@@H]2C[C@H]1C(=O)N[C@@H](c1ccccc1)C(=O)N[C@H](C(=O)O)Cc1ccc(cc1)C(=O)N[C@H]1C[C@@H](C(=O)N[C@@H](Cc3ccc4ccccc4c3)C(=O)N[C@H](C(=O)O)Cc3ccc(cc3)OC/C=C/CO2)N(C(=O)[C@@H](NC(=O)[C@H](C)NC)C(C)(C)C)C1` [Example 52] displayed an IC50 of 77.8 nM.
